# Laboratory results: PubChem BioAssay (NCI)
# Where “and” joins values, the source holds several entries; their conditions need not be identical. Identical values can stand only once.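 Where inhibition never reached the appropriate level, the endpoint shown equals the highest concentration tested. Otherwise, values were interpolated linearly from a five-concentration, 48-hour dose response in 96-well plates. GI50 marks 50% less growth. TGI marks complete inhibition of growth.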
# Assays:
# Experiment in all cases: NCI tumour cell line growth inhibition, 48 h
# [1] = test system: MALME-3M melanoma
# [2] = test system: SK-MEL-28 melanoma
# [3] = test system: UACC-257 melanoma
# [4] = test system: TK-10 renal
# [5] = test system: SK-MEL-5 melanoma
# [6] = test system: U251 CNS
# [7] = test system: SNB-19 CNS
# [8] = test system: KM12 colon
# [9] = test system: HOP-62 NSCLC
# [10] = test system: HCT-15 colon
Structure (SMILES),GI50 [1] [µM],TGI [1] [µM],GI50 [2],TGI [2],GI50 [3],TGI [3],GI50 [4],TGI [4],GI50 [5],TGI [5],GI50 [6],TGI [6],GI50 [7],TGI [7],GI50 [8],TGI [8],GI50 [9],TGI [9],GI50 [10],TGI [10]
CSC1=Nc2c(c(C)c(-c3ccccc3)n2COC(CO)CO)C2=NC(=O)C(C)N12 (stereo unspecified),> 100,> 100,> 100 µM,> 100 µM,> 100 µM,> 100 µM,> 100 µM,> 100 µM,> 100 µM,> 100 µM,> 100 µM,> 100 µM,> 100 µM,> 100 µM,> 100 µM,> 100 µM,> 100 µM,> 100 µM,> 100 µM,> 100 µM
COc1cc(/C=C/C(=O)C(=Cc2ccc(F)c(F)c2)C(=O)/C=C/c2ccc(O)c(OC)c2)ccc1O,5.61,37.3,1.87 µM,3.8 µM,1.78 µM,4.37 µM,2.67 µM,8.37 µM,2.18 µM,5.3 µM,1.7 µM,3.51 µM,3.54 µM,15.9 µM,1.64 µM,3.19 µM,2.87 µM,9.38 µM,2.82 µM,10.1 µM
Clc1ccc(-c2nc3c(-c4ccc(Cl)cc4)nc(-c4ccccc4)cn3c2-c2ccc(Cl)cc2)cc1,> 50,> 50,> 50 µM,> 50 µM,> 50 µM,> 50 µM,34.3 µM,> 50 µM,> 50 µM,> 50 µM,45.2 µM,> 50 µM,> 50 µM,> 50 µM,> 50 µM,> 50 µM,16 µM,> 50 µM,> 50 µM,> 50 µM
COc1cc(CNC(=O)/C=C/C=C/c2ccc3c(c2)OCO3)ccc1OCc1cn(-c2ccc(Cl)c(Cl)c2)nn1,0.476,1.92,1.67 µM,3.46 µM,1.8 µM,3.98 µM,2.31 µM,7.65 µM,1.77 µM,3.69 µM,1.65 µM,3.22 µM,2.5 µM,12.4 µM,2.41 µM,7.25 µM,1.79 µM,3.86 µM,0.519 µM,2.5 µM
C/C(CN1C(=O)c2ccccc2C1=O)=N\NS(=O)(=O)c1ccccc1,,> 100,,> 100 µM,,> 100 µM,,> 100 µM,,> 100 µM,,> 100 µM,,> 100 µM,,> 100 µM,,> 100 µM,,> 100 µM
CC/C(=N\Nc1nc2ccccc2n1C)c1ccccn1,0.127,10.3,0.214 µM,13.5 µM,0.0735 µM,2.64 µM,0.5 µM,12.3 µM,0.174 µM,1.39 µM,0.0863 µM,11 µM,0.281 µM,14.4 µM,0.19 µM,11.3 µM,0.175 µM,3.34 µM,0.0141 µM,12.9 µM
O=C(CCCn1c2c(sc3ncccc32)c(=O)n2nnc(-c3ccccc3)c12)NCCc1cnc[nH]1,18.1,37,17 µM,35 µM,18.3 µM,35.6 µM,13.6 µM,27.9 µM,16.1 µM,> 100 µM,1.28 µM,14.9 µM,10.8 µM,33.7 µM,1.89 µM,24 µM,16.5 µM,32 µM,5.8 µM,> 100 µM
O=C1Cc2cc(CCn3ccnc3)c(Cl)cc2N1,79.5,> 100,29.7 µM,> 100 µM,5.65 µM,> 100 µM,> 100 µM,> 100 µM,8.12 µM,> 100 µM,8.24 µM,> 100 µM,22.1 µM,> 100 µM,3.58 µM,98.4 µM,33.2 µM,> 100 µM,7.07 µM,> 100 µM
CCN1CCC[C@H]1c1cc(O)c2c(c1OC)C[C@H]1C[C@H]3[C@H](N)C(=O)C(C(N)=O)=C(O)[C@@]3(O)C(=O)C1=C2O,0.0423,0.689,0.0668 µM,1.26 µM,0.126 µM,2.11 µM,0.0626 µM,2.42 µM,0.0797 µM,0.951 µM,0.0442 µM,1.88 µM,0.113 µM,2.04 µM,0.0998 µM,13.2 µM,0.0517 µM,1.67 µM,0.0547 µM,5.17 µM
CCCNc1nc(N(C)O)nc(N(C)O)n1,2.96,32.5,2.64 µM,> 91 µM,4.13 µM,> 46.2 µM,1.44 µM,> 100 µM,1.6 µM,6.61 µM,0.955 µM,> 100 µM,4.07 µM,> 100 µM,3.09 µM,> 100 µM,1.82 µM,97.6 µM,0.504 µM,> 100 µM
CCCCCCN(CCCCCC)CCCNc1nccc2ccccc12,1.94,3.91,1.64 µM,3.17 µM,1.84 µM,3.54 µM,1.47 µM,3.02 µM,1.7 µM,3.13 µM,1.54 µM,2.96 µM,2.09 µM,6.01 µM,1.81 µM,3.56 µM,1.46 µM,3.41 µM,1.41 µM,3.21 µM
O=C(c1cc2ccccc2[nH]1)C(O)(c1cc2ccccc2[nH]1)c1cc2ccccc2[nH]1,,> 246,,> 246 µM,,> 246 µM,,> 246 µM,,> 246 µM,,> 246 µM,,> 246 µM,,> 246 µM,,> 246 µM,,> 246 µM
Cc1c2ccccc2c(C)c2c3c(ccc12)C(=O)C=CC3=O,,> 79.2,,> 57.1 µM,,41.5 µM,,36.7 µM,,> 79.3 µM,,> 100 µM,,> 100 µM,,> 67.6 µM,,> 90.9 µM,,42.4 µM
Cc1cccc(CN(C)c2ccc(CO)c(Cl)c2)c1,19.5,49.8,19.3 µM,> 76.1 µM,0.565 µM,2.22 µM,0.267 µM,1.56 µM,9.47 µM,22.3 µM,5.07 µM,43.6 µM,28.4 µM,> 100 µM,22.5 µM,72.4 µM,7.41 µM,40.6 µM,19.8 µM,> 100 µM
O=C(CCc1nnc2s/c(=C\c3ccccc3)c(=O)n12)Nc1cc(Cl)ccc1Cl,,> 100,,> 100 µM,,> 100 µM,,> 100 µM,,> 100 µM,,> 100 µM,,> 100 µM,,> 100 µM,,> 100 µM,,> 100 µM
Fc1ccc(-c2nc(-c3nc4ccc(Cl)cc4[nH]3)cc3c2[nH]c2ccccc23)cc1,4.54,17.3,4.25 µM,14.9 µM,2.4 µM,6.62 µM,3.35 µM,9.86 µM,3.52 µM,15.4 µM,3.31 µM,18 µM,4.27 µM,> 100 µM,3.46 µM,13.7 µM,3.87 µM,16.5 µM,3.63 µM,15.9 µM
COC(=O)/C(C#N)=C\N1CCN(C(=O)c2ccco2)C1=S,32.7,63.7,13 µM,79.6 µM,5.94 µM,22.5 µM,3.63 µM,13.2 µM,14.8 µM,31 µM,6.78 µM,37 µM,54.9 µM,> 100 µM,3.3 µM,12.6 µM,22.3 µM,46.8 µM,2.95 µM,> 100 µM
COc1ccc2c(c1)C(=O)c1c-2n(CCCN=[N+]=[N-])c(=O)c2ccccc12,> 100,> 100,> 100 µM,> 100 µM,> 100 µM,> 100 µM,60 µM,> 100 µM,14.6 µM,> 100 µM,27.5 µM,> 100 µM,17.6 µM,> 100 µM,> 100 µM,> 100 µM,34.2 µM,> 100 µM,58.4 µM,> 100 µM
OC(c1ccccc1)(c1ccccc1)c1ccccn1,,> 100,,> 100 µM,,> 100 µM,,> 100 µM,,> 100 µM,,> 100 µM,,> 100 µM,,> 100 µM,,> 100 µM,,> 100 µM
Oc1nc(NCCc2ccccc2)sc1/C=C1\C=Nc2ncccc21,3.28,8.93,2.83 µM and 2.52 µM,13.6 µM and 7.58 µM,3.49 µM and 3.36 µM,8.68 µM and 8.42 µM,3.59 µM and 3.04 µM,15.5 µM and 17.7 µM,2.45 µM and 2.83 µM,6.67 µM and 7.88 µM,2.29 µM and 3.26 µM,7.89 µM and 11.5 µM,2.47 µM and 2.82 µM,11.2 µM and 18.7 µM,2.69 µM and 2.71 µM,9.91 µM and 13 µM,2.47 µM and 3.43 µM,7.86 µM and 9.47 µM,2.63 µM and 3.15 µM,13.9 µM and 33.5 µM
CC(C)=CC/C=C(/C)[C@H]1CC[C@]2(C)[C@@H]1CC[C@@H]1[C@@]3(C)CCC(=O)NC(C)(C)[C@@H]3CC[C@]12C,16,30.8,16.7 µM,31.6 µM,31.7 µM,> 100 µM,47.5 µM,> 100 µM,13.3 µM,26.4 µM,17.2 µM,36.5 µM,25 µM,72.4 µM,18.7 µM,37.5 µM,20.8 µM,44.7 µM,15.4 µM,32.1 µM
CCOc1ccc(Cc2nccc3cc(OCC)c(OCC)cc23)cc1OCC,8.76,26,14.8 µM,28.9 µM,3.34 µM,14.6 µM,11 µM,32.5 µM,1.61 µM,4.19 µM,7.73 µM,21.9 µM,10.7 µM,31.8 µM,4.85 µM,24.5 µM,3.01 µM,20.9 µM,10.2 µM,29.8 µM
COc1cc2c(cc1OC)C(CCc1ccc(Cl)cc1)N(C)CC2 (stereo unspecified),21.6,46.5,20.1 µM,46.9 µM,27.2 µM,65.9 µM,17 µM,42.2 µM,14.4 µM,27.6 µM,22.8 µM,64.3 µM,37.1 µM,> 100 µM,19.5 µM,38.1 µM,32.9 µM,> 100 µM,30.2 µM,> 100 µM
CC1=C(N2CC2)C(=O)C(CO)=C(N2CC2)C1=O,,0.116,,0.228 µM,0.0761 µM,0.527 µM and 2.41 µM,0.0405 µM,0.721 µM and 0.309 µM,0.0399 µM,0.162 µM and 0.312 µM,,0.285 µM,0.0025 µM,,0.0356 µM,0.337 µM,0.0219 µM,0.0569 µM,0.02 µM,0.584 µM
Nc1nc(-c2ccccc2)c(-c2ccccc2)c(-c2nc(N)nc(-c3ccccc3)c2-c2ccccc2)n1,,> 100,,> 100 µM,,> 100 µM,,> 100 µM,,> 100 µM,,> 100 µM,,> 100 µM,,> 100 µM,,> 100 µM,,> 100 µM
COC1=C(OC)C(=O)C(/C=C(\C)C(=O)O)=C(C)C1=O,> 100,> 100,> 100 µM,> 100 µM,> 100 µM,> 100 µM,> 100 µM,> 100 µM,> 100 µM,> 100 µM,> 100 µM,> 100 µM,> 100 µM,> 100 µM,> 100 µM,> 100 µM,> 100 µM,> 100 µM,> 100 µM,> 100 µM
CC(=O)NNc1nc(C)c(C(=O)NNC(=O)C(=O)Nc2ccc(C)c(C)c2)s1,,> 100,,> 100 µM,,> 100 µM,,> 100 µM,,> 100 µM,,> 100 µM,,> 100 µM,,> 100 µM,,> 100 µM,,> 100 µM
C/C(=N\NC(=O)CC(=O)Nc1ccc(C)cc1)c1cc2ccccc2oc1=O,,> 100,,> 100 µM,,> 100 µM,,> 100 µM,,> 100 µM,,> 100 µM,,> 100 µM,,> 100 µM,,> 100 µM,,> 100 µM
